Experimental data: publication PMC8739753 (ACS catalysis, 2021)
≈ marks a conversion by molar mass, not a printed value. Where “and” joins values, the source holds several entries; their conditions need not be identical. Identical values can stand only once.

What was measured:
[1] = tested on: vancomycin-resistant Enterococcus; test: Antimicrobial testing; type: cell-based; conditions: for MIC: Enterococcus
[2] = tested on: S. pneumonia ATCC 49619; test: Antimicrobial testing; type: cell-based
[3] = tested on: E. coli TolC; type: cell-based
[4] = tested on: B. anthracis 34f2; type: cell-based; conditions: comparable to commercial antibiotic erythromycin
[5] = target: TamI WT and mutants; test: Substrate-induced heme spin shift binding, several TamI P450s
[6] = target: TamL enzyme (Streptomyces sp. 307-9, UniProt D3Y1I2); test: Isothermal titration calorimetry with TamL
[7] = tested on: TamI WT and mutants; conditions: range over WT and all variants tested
[8] = target: TamI WT; test: Substrate-induced heme spin shift binding, TamI WT; conditions: TamI WT (parent enzyme)
[9] = tested on: TamI WT; test: Total turnover number, TamI WT; conditions: compound as substrate
[10] = tested on: CC1=CC[C@H]2O[C@]1(C)O[C@H]([C@H](C)/C=C(C)/C=C/C(O)=C1/C(=O)CNC1=O)[C@H]2C; test: purified protein, by the assay type
[11] = tested on: TamI biocatalysts; test: In vitro analytical enzymatic reactions with TamI biocatalysts; type: biochemical, Streptomyces sp. 307-9; conditions: compound as substrate
[12] = substrate: CC(C=CC(O)=C1C(=O)CNC1=O)=CC(C)C1OC2(C)OC(C(O)C=C2C)C1C; test: purified protein, by the assay type; conditions: other: compound as substrate; P450 TamI WT
[13] = substrate: CC1=CC(=O)[C@H]2O[C@]1(C)O[C@H]([C@H](C)/C=C(C)/C=C/C(O)=C1/C(=O)CNC1=O)[C@H]2C; test: purified protein, by the assay type; conditions: other: compound as substrate; P450 TamI WT
[14] = substrate: CC(/C=C/C(O)=C1/C(=O)CNC1=O)=C\[C@@H](C)[C@H]1O[C@@]2(C)O[C@H](C(=O)[C@@H]3O[C@@]32C)[C@@H]1C; test: purified protein, by the assay type; conditions: other: compound as substrate; P450 TamI WT

O=C(O)c1cn(C2CC2)c2cc(N3CCNCC3)c(F)cc2c1=O [ciprofloxacin, reference compound]
MIC [1]: > 100 µM
MIC [2]: 1.56 µM (≈ 0.517 µg/mL)

CC1=CC[C@H]2O[C@]1(C)O[C@H]([C@H](C)/C=C(C)/C=C/C(O)=C1/C(=O)CNC1=O)[C@H]2C [compound 1, tirandamycin C]
activity against E. coli TolC (in words) [3]: relatively weak activity
MIC [1]: 25 µM (≈ 9.69 µg/mL)
activity against B. anthracis 34f2 (in words) [4]: strong activity
MIC [2]: 12.5 µM (≈ 4.84 µg/mL)
activity against S. pneumonia ATCC 49619 (in words) [2]: enhanced activity

CC(C=CC(O)=C1C(=O)CNC1=O)=CC(C)C1OC2(C)OC(C(O)C=C2C)C1C (stereo not drawn) [compound 2, tirandamycin E]
spin shift ([5]; the other P450s (than L101A_L295I) including the parent enzyme): no spin shift was observed
Kd [6]: 2.26 µM
MIC [1]: > 100 µM
MIC [2]: > 100 µM

CC1=CC(=O)[C@H]2O[C@]1(C)O[C@H]([C@H](C)/C=C(C)/C=C/C(O)=C1/C(=O)CNC1=O)[C@H]2C [compound 3, tirandamycin D]
TTN (mol substrate consumed/mol P450) [7]: 313–340
Kd ([5]; heme spin shift, range over WT and all variants tested): 6.89 to 8.32 µM
MIC [1]: > 100 µM
activity against B. anthracis 34f2 (in words) [4]: strong activity
MIC [2]: 12.5 µM (≈ 5.02 µg/mL)
activity against S. pneumonia ATCC 49619 (in words) [2]: enhanced activity

CC(/C=C/C(O)=C1/C(=O)CNC1=O)=C\[C@@H](C)[C@H]1O[C@@]2(C)O[C@H](C(=O)[C@@H]3O[C@@]32C)[C@@H]1C [compound 4, Tirandamycin A]
Kd [8]: no shift observed
TTN (mol substrate consumed/mol P450) [9]: 143
activity against VRE (in words) [1]: strongest activity
MIC [1]: 6.25 µM (≈ 2.61 µg/mL)
MIC [2]: 25 µM (≈ 10.4 µg/mL)

CC[C@H]1OC(=O)[C@H](C)[C@@H](O[C@H]2C[C@@](C)(OC)[C@@H](O)[C@H](C)O2)[C@H](C)[C@@H](O[C@@H]2O[C@H](C)C[C@H](N(C)C)[C@H]2O)[C@](C)(O)C[C@@H](C)C(=O)[C@H](C)[C@@H](O)[C@]1(C)O [erythromycin, reference compound]
MIC [1]: 3.13 µM (≈ 2.3 µg/mL)
MIC [2]: 0.195 µM (≈ 0.143 µg/mL)

CNC(=O)[C@@H](C)[C@H]1C(=O)/C(=C(O)/C=C/C(C)=C/[C@@H](C)[C@H]2O[C@@]3(C)O[C@H](C=C[C@@]34CO4)[C@@H]2C)C(=O)N1[C@@H]1CC[C@H](O)[C@H](C)O1 [streptolydigin, reference compound]
MIC [1]: > 100 µM
MIC [2]: > 100 µM

P450 TamI WT (Streptomyces sp. 307-9)
Km [10]: 16.0 ± 2.6 µM
kcat [10]: 0.497 ± 0.0317 s⁻¹
kcat/Km [10]: 31200 M⁻¹ s⁻¹

tirandamycin O’ [compound 10]
oxidative activity / product formation with TamI biocatalysts [11]: failed to yield products

B1: P450 TamI WT (Streptomyces sp. 307-9) (protein)
chain: MPMLQDSVPLELDDAFMQDPHSVYARLNAEGSAHRVMMPPGVPVCGGLPVWLITGYEEVRSALADPRLSTDLNRTDRLFAQNEPDRNKRGAFSSALATHMLHSDPPDHTRLRKLVNKAFTSRAIEKLRPEIEQITGELLAALPDEDPVDLLDAFAFPLPIRVICLLLGVPLEEQENFKSWSKALVSGDSPAATAAASTAMIEYLGDLIERKRRTPTDDVLAALVSARDVDDRLTETELVSMAFLLFIGGHETTVNTLGNGTLHLMRNLDQWEALRQDRSLLPGAVEEFLRLESPLKHATFRCATEDLRIGDTAIPAGDFVLLALASANRDPERFGDPHTLDVRRPTGGHVAFGHGIHYCLGAPLARMEAQVAFGVLLDTFPAMRLAVDPEDMRWRTSTLIRGLHSLPVRLNRP
Km [12]: 108.5 ± 25.9 µM
kcat [12]: 0.000667 ± 0.000167 s⁻¹
kcat/Km [12]: 5 M⁻¹ s⁻¹
Km [13]: 36.5 ± 7.1 µM
kcat [13]: 0.113 ± 0.00833 s⁻¹
kcat/Km [13]: 3170 M⁻¹ s⁻¹
Km [14]: 8.2 ± 1.0 µM
kcat [14]: 0.0006 ± 1.67e-05 s⁻¹
kcat/Km [14]: 67 M⁻¹ s⁻¹ and 73.3 M⁻¹ s⁻¹
